# Active and inactive are the calls of the source.
# Tests used:
# [1] = biological target: T1, Alkaline phosphatase, tissue-nonspecific isozyme (Homo sapiens, UniProt P05186); assay: human TNAP enzyme inhibitors, SAR follow-up, biochemical, luminescent, dose response (AID 1056)
# T1 sequence (P05186 whole entry): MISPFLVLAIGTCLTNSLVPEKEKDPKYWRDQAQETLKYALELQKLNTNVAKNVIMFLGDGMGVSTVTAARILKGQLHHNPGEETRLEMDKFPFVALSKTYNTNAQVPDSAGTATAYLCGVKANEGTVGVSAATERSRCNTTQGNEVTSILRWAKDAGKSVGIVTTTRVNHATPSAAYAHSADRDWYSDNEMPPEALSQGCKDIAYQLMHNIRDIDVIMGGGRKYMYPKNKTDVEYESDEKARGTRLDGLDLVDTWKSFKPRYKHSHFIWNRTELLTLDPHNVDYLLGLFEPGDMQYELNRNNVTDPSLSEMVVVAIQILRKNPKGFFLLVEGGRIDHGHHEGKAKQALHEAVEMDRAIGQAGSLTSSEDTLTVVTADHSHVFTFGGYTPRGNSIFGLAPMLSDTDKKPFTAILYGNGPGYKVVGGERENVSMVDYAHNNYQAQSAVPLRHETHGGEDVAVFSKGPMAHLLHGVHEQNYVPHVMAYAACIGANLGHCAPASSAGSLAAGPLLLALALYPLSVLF
# [2] = cells; format: functional, cell-based
# [3] = cells; format: functional, cell-based; remark: listed apart in the source
# [4] = A Cell Based Secondary Assay To Explore Cytotoxicity of Compounds that Sensitize Mycobacterium Tuberculosis to Beta-Lactam Antibiotics.; format: functional
# [5] = system: H9c2; assay: cells; format: functional, cell-based; conditions: Rattus norvegicus, H9c2, Myocardium;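 also: confirmatory concentration-response retest of ultra-high-throughput screening hits for modulation of myocardial damage; cell death induced by hydrogen peroxide oxidative stress; compound pretreatment for 60 min then peroxide exposure for 2 h; potency is for protecting the cells against peroxide damage rather than for killing them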
# [6] = biological target: Cytochrome P450 2D6 (Homo sapiens, UniProt P10635);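 also: CYP2D6 member of a cytochrome P450 panel assay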
# Chain of Cytochrome P450 2D6 (P10635 whole entry): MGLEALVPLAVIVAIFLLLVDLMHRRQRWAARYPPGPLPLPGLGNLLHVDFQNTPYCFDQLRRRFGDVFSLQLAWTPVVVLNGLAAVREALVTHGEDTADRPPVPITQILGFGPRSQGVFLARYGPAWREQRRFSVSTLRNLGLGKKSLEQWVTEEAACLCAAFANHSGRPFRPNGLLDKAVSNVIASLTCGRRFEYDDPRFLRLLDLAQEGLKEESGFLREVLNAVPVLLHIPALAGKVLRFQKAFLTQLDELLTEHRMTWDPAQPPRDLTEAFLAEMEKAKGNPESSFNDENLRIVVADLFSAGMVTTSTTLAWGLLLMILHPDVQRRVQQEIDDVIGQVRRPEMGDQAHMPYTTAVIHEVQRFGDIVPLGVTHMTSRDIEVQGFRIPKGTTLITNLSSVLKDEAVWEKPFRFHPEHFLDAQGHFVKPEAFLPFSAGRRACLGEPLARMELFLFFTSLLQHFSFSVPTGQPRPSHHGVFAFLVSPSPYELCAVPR
# [7] = biological target: T2, Cytochrome P450 1A2 (Homo sapiens, UniProt P05177);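 also: PubChem cytochrome P450 panel assay, CYP1A2 panel member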
# T2 sequence (P05177 whole entry): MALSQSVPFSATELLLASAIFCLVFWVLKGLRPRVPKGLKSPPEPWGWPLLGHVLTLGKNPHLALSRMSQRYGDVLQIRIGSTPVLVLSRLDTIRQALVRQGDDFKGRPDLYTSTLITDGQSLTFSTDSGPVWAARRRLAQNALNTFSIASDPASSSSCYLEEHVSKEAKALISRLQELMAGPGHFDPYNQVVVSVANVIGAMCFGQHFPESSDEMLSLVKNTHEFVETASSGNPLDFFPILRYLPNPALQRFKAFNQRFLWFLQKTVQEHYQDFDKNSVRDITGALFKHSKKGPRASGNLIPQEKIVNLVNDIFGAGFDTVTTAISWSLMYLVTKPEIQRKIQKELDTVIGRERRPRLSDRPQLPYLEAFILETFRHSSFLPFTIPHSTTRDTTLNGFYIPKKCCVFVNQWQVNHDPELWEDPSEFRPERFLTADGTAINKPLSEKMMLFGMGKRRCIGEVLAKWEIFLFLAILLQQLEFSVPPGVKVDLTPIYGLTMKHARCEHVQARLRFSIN
# [8] = biological target: Cytochrome P450 2C19 (Homo sapiens, UniProt P33261); assay: Cytochrome panel assay with activity outcomes. Panel member name: p450-cyp2c19 Compounds with AC50 equal or less than 10 uM are considered active; format: functional; conditions: read-out: AC50
# Chain of Cytochrome P450 2C19 (P33261 whole entry): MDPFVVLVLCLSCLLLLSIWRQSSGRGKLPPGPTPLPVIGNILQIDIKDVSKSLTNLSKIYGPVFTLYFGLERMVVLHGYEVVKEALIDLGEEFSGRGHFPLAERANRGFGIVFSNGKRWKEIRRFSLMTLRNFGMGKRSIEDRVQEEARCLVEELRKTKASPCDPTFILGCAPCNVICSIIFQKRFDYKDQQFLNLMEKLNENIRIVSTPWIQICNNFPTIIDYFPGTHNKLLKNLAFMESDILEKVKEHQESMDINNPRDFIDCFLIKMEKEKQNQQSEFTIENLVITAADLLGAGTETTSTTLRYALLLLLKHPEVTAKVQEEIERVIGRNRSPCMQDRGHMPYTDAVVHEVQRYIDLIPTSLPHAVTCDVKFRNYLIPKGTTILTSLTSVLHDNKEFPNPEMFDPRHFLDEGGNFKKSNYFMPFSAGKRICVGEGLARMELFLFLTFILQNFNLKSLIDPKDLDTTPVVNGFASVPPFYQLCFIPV
# [9] = biological target: T3, Histone-lysine N-methyltransferase NSD2 (Homo sapiens, UniProt O96028); format: biochemical
# T3 sequence (O96028 whole entry): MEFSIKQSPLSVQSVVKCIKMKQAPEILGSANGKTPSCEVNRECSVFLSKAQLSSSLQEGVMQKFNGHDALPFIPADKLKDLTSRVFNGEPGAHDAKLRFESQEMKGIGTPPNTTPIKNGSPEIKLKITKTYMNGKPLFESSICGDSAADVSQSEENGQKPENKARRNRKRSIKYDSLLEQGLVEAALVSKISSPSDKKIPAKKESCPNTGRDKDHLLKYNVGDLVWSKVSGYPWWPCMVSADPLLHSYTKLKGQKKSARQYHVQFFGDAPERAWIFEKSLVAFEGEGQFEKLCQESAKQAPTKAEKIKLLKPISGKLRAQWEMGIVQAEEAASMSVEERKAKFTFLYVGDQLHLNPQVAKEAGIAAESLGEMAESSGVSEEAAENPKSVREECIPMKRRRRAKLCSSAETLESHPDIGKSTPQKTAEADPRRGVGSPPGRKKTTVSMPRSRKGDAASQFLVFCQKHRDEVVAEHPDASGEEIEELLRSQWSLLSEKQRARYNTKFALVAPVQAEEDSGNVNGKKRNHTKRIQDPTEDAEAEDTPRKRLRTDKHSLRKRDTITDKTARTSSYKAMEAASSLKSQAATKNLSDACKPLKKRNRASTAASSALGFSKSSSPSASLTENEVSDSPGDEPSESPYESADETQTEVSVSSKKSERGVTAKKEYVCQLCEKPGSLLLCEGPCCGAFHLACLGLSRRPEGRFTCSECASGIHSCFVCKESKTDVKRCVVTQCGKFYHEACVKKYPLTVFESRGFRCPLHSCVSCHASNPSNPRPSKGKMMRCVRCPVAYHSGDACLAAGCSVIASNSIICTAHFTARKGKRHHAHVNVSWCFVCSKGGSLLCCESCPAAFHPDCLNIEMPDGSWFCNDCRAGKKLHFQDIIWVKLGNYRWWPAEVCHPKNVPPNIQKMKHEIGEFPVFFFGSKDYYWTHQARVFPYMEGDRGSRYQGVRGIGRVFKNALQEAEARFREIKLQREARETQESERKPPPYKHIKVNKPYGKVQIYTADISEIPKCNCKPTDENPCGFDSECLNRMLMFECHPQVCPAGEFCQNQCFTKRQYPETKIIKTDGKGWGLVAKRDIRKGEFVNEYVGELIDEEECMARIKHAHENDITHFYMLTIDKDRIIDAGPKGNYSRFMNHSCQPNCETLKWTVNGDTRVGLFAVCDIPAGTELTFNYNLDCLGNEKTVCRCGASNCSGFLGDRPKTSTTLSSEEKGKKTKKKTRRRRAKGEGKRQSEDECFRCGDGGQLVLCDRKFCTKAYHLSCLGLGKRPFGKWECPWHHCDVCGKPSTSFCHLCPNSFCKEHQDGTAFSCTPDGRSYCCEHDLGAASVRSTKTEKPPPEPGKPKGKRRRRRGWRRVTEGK
# [10] = biological target: Voltage-dependent T-type calcium channel subunit alpha-1H (Homo sapiens, UniProt O95180); format: functional;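 also: channel activity triggered by adding a high calcium stimulation buffer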
# Chain of Voltage-dependent T-type calcium channel subunit alpha-1H (O95180 whole entry): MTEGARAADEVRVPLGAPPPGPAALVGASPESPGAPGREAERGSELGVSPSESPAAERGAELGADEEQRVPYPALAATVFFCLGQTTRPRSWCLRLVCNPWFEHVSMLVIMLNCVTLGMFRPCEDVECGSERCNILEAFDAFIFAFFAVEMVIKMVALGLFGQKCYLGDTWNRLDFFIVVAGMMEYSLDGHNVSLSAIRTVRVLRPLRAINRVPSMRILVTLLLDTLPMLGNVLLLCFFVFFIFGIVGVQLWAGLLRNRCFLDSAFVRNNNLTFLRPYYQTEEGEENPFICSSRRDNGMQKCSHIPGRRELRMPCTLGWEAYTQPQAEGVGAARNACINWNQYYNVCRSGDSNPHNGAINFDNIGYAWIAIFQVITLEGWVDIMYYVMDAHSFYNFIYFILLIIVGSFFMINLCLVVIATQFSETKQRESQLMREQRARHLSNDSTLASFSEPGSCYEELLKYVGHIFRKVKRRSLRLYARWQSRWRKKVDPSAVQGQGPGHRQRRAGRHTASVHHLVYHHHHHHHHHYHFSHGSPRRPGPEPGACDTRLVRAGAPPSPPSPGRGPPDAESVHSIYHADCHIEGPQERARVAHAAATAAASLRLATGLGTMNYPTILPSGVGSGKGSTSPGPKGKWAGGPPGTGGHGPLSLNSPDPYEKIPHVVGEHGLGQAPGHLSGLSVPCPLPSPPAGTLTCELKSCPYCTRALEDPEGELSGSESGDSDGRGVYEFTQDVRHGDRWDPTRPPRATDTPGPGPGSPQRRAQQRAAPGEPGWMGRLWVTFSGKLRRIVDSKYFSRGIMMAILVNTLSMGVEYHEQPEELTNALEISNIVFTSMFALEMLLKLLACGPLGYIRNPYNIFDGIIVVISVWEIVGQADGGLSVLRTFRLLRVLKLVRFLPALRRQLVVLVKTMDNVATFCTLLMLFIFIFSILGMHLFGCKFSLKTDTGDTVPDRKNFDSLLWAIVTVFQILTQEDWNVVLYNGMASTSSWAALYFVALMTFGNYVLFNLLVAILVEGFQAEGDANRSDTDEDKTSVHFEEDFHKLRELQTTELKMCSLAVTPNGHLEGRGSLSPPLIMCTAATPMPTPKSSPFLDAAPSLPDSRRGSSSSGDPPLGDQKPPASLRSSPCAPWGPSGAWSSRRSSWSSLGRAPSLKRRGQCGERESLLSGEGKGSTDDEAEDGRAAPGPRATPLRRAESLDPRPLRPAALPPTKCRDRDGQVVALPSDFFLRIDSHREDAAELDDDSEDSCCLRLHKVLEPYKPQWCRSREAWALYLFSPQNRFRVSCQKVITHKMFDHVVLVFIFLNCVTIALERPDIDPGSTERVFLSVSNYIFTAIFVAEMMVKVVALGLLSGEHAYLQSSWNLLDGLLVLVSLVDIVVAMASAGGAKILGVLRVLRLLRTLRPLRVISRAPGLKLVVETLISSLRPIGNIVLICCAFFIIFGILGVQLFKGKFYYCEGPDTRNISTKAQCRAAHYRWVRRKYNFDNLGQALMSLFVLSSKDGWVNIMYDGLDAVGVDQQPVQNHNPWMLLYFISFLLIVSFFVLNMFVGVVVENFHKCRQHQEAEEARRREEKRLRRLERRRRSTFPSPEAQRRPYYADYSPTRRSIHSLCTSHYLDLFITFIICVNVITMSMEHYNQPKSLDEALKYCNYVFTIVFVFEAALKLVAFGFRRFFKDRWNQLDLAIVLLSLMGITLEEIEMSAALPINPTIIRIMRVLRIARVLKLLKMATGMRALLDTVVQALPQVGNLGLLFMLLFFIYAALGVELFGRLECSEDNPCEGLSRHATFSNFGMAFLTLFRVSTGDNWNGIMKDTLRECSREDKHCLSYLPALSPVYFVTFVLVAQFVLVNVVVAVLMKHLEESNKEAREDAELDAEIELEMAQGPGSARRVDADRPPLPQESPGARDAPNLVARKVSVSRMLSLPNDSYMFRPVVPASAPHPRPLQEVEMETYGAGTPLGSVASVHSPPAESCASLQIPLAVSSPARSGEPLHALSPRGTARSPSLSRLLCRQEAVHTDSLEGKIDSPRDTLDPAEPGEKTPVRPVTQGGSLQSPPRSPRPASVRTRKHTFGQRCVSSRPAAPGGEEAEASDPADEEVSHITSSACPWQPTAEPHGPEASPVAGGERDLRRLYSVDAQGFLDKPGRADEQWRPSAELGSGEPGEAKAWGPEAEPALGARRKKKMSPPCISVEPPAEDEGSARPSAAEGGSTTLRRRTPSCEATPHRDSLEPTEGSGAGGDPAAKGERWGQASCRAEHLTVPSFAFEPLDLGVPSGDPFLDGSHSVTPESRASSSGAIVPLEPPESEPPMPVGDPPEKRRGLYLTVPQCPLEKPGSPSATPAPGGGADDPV
# [11] = microbe, parasite or virus in culture; format: functional; conditions: Mycobacterium tuberculosis
# [12] = inhibitors of intracellular T. cruzi replication, confirmation, NIH3T3 host cells, beta-gal luminescence (AID 2044); format: functional, cell-based;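 also: intracellular parasites grown in NIH/3T3 mouse fibroblasts as host cells; luminescent beta-galactosidase reporter signal from transgenic T. cruzi replicating inside host cells; inhibitors lower the luminescence signal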
# [13] = Luminescence Cell-Based Dose Retest to Confirm Inhibitors of Cancer Stem Cells. [Related pubchem assays (depositor defined):AID2717, AID2721]; format: functional; conditions: Homo sapiens
# [14] = cytotoxicity toward NIH3T3 fibroblasts, dose response, counter-screen, cell-based, ATP luminescence, mouse fibroblasts (AID 2010); format: functional;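 also: cells exposed to compound for about 90 hours before reading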
# [15] = A549 cell cytotoxicity, dose response, cytotoxicity control, plate reader, cherry-pick, antagonist series (AID 743412); format: functional, cell-based
compound,measurement,setting,value
O=C(Cn1cnnc1)c1ccc(O)c(O)c1,IC50,[1],> 100 µM (inactive)
COc1cc(C(=O)Nc2sc(C)c(C)c2C(=O)O)cc(OC)c1OC,EC50,[2],> 350 µM (not active)
same,EC50,[3],> 350 µM (not active)
c1ccc(-c2oc3ncnc(NCCN4CCOCC4)c3c2-c2ccccc2)cc1,CC50,[4],> 40 µM (active)
same,IC50,[5],> 79 µM (inactive)
COC(=O)[C@@]1(Cc2ccc(F)cc2)[C@H]2c3cc(C(=O)N(C)C)n(Cc4ccc(OC)c(OC)c4)c3C[C@H]2CN1C(=O)c1ccccc1,CC50,[4],> 40 µM (active)
same,AC50,[6],39.8 µM (inconclusive)
same,AC50,[7],31.6 µM (inconclusive)
same,AC50,[8],39.8 µM (inconclusive)
CC1(C)CN(c2cccc(C#N)c2)C1=O,AC50,[9],10.7 µM (active)
O=S(=O)(c1cccc(S(=O)(=O)N2CCC(Cc3ccccc3)CC2)c1)N1CCOCC1,EC50,[10],8.09 µM (active)
Cc1ccccc1N1CCN(C(=O)c2ccc(Oc3ccc(C(F)(F)F)cn3)cc2)CC1,CC50,[11],> 40 µM (active)
same,EC50,[12],2.32 µM (active)
same,AC50,[13],3.43 µM (active)
same,EC50,[14],> 60 µM (not active)
same,EC50,[10],5.89 µM (active)
O=C(Nc1ccc(N2CCOCC2)c(S(=O)(=O)Nc2ccccc2Cl)c1)c1ccc(F)cc1,AC50,[15],> 52 µM (inactive)
Nc1nc(SCC(=O)N2CCCC2)nc(O)c1-c1ccccc1,EC50,[2],> 350 µM (not active)
same,EC50,[3],> 350 µM (not active)

# Reference: ChEMBL document CHEMBL1201862, “PubChem BioAssay data set” (2004)
